Assay [1] concerns Rattus norvegicus. The assay is described as follows: Anti-inflammatory activity in Rattus norvegicus Sprague-Dawley (rat) assessed as increase in carrageenan-induced paw edema at 16 mg/kg, po measured at 4 hr by plethysmometer (reference value: 81.58 +/- 0.63 %). It is filed as functional.
The subject of assay [2] is Rattus norvegicus. The assay is described as follows: Anti-inflammatory activity in Rattus norvegicus Sprague-Dawley (rat) assessed as increase in carrageenan-induced paw edema at 16 mg/kg, po measured at 2 hr by plethysmometer (reference value: 64.73 +/- 0.72 %). The assay is classed as functional.
Assay [3] has as its system Rattus norvegicus. The assay is described as follows: Antiulcerogenic activity in fasted Rattus norvegicus Sprague-Dawley (rat) stomach assessed as ulcer index at 67.1 mg/kg, po after 8 hr (reference value: 0.23 +/- 0.09). It is filed as functional.
Assay [4] concerns Mus musculus. Nature of the assay: Analgesic activity in Mus musculus (mouse) assessed as inhibition of acetic acid-induced abdominal writhing at 13.96 mg/kg, po measured for 20 min relative to vehicle-treated control. Conditions: Abdomen. (In general: In writhing tests, fewer writhes than in controls are read as antinociception.)
Assay [5] concerns Rattus norvegicus. Nature of the assay: Anti-inflammatory activity in Rattus norvegicus Sprague-Dawley (rat) assessed as increase in carrageenan-induced paw edema at 16.9 mg/kg, po measured at 4 hr by plethysmometer (reference value: 81.58 +/- 0.63 %). It is filed as functional.
Assay [6] relates to Rattus norvegicus. The assay is described as follows: Anti-inflammatory activity in Rattus norvegicus Sprague-Dawley (rat) assessed as increase in carrageenan-induced paw edema at 16.9 mg/kg, po measured at 2 hr by plethysmometer (reference value: 64.73 +/- 0.72 %). The assay is classed as functional. (Carrageenan injected into the paw causes an acute inflammation.)
The subject of assay [7] is Rattus norvegicus. Nature of the assay: Antiulcerogenic activity in fasted Rattus norvegicus Sprague-Dawley (rat) stomach assessed as ulcer index at 67.6 mg/kg, po after 8 hr (reference value: 0.23 +/- 0.09). It is filed as functional.
The subject of assay [8] is Mus musculus. The assay is described as follows: Analgesic activity in Mus musculus (mouse) assessed as inhibition of acetic acid-induced abdominal writhing at 14.08 mg/kg, po measured for 20 min relative to vehicle-treated control. Conditions: Abdomen.
In assay [9] the test system is Rattus norvegicus. The assay is described as follows: Anti-inflammatory activity in Rattus norvegicus Sprague-Dawley (rat) assessed as increase in carrageenan-induced paw edema at 15.6 mg/kg, po measured at 4 hr by plethysmometer (reference value: 81.58 +/- 0.63 %). The assay is classed as functional.
Assay [10] concerns Rattus norvegicus. Nature of the assay: Anti-inflammatory activity in Rattus norvegicus Sprague-Dawley (rat) assessed as increase in carrageenan-induced paw edema at 15.6 mg/kg, po measured at 2 hr by plethysmometer (reference value: 64.73 +/- 0.72 %). It is filed as functional.
Assay [11] has as its system Rattus norvegicus. Nature of the assay: Antiulcerogenic activity in fasted Rattus norvegicus Sprague-Dawley (rat) stomach assessed as ulcer index at 62.2 mg/kg, po after 8 hr (reference value: 0.23 +/- 0.09). The assay is classed as functional.
Assay [12] deals with Mus musculus. The assay is described as follows: Analgesic activity in Mus musculus (mouse) assessed as inhibition of acetic acid-induced abdominal writhing at 12.9 mg/kg, po measured for 20 min relative to vehicle-treated control. As to conditions: Abdomen.
In assay [13] the test system is Rattus norvegicus. The assay is described as follows: Anti-inflammatory activity in Rattus norvegicus Sprague-Dawley (rat) assessed as increase in carrageenan-induced paw edema at 16.6 mg/kg, po measured at 2 hr by plethysmometer (reference value: 64.73 +/- 0.72 %). The assay is classed as functional.
In assay [14] the test system is Rattus norvegicus. Nature of the assay: Anti-inflammatory activity in Rattus norvegicus Sprague-Dawley (rat) assessed as increase in carrageenan-induced paw edema at 16.6 mg/kg, po measured at 4 hr by plethysmometer (reference value: 81.58 +/- 0.63 %). It is filed as functional.
The subject of assay [15] is Rattus norvegicus. The assay is described as follows: Antiulcerogenic activity in fasted Rattus norvegicus Sprague-Dawley (rat) stomach assessed as ulcer index at 66.5 mg/kg, po after 8 hr (reference value: 0.23 +/- 0.09). The assay is classed as functional.
Assay [16] has as its system Mus musculus. The assay is described as follows: Analgesic activity in Mus musculus (mouse) assessed as inhibition of acetic acid-induced abdominal writhing at 13.9 mg/kg, po measured for 20 min relative to vehicle-treated control. As to conditions: Abdomen.
Assay [17] has as its system Rattus norvegicus. Nature of the assay: Anti-inflammatory activity in Rattus norvegicus Sprague-Dawley (rat) assessed as increase in carrageenan-induced paw edema at 16.4 mg/kg, po measured at 4 hr by plethysmometer (reference value: 81.58 +/- 0.63 %). The assay is classed as functional.
The subject of assay [18] is Rattus norvegicus. The assay is described as follows: Anti-inflammatory activity in Rattus norvegicus Sprague-Dawley (rat) assessed as increase in carrageenan-induced paw edema at 16.4 mg/kg, po measured at 2 hr by plethysmometer (reference value: 64.73 +/- 0.72 %). The assay is classed as functional.
Assay [19] relates to Rattus norvegicus. The assay is described as follows: Antiulcerogenic activity in fasted Rattus norvegicus Sprague-Dawley (rat) stomach assessed as ulcer index at 65.7 mg/kg, po after 8 hr (reference value: 0.23 +/- 0.09). The assay is classed as functional.
The test system of assay [20] is Mus musculus. Nature of the assay: Analgesic activity in Mus musculus (mouse) assessed as inhibition of acetic acid-induced abdominal writhing at 13.69 mg/kg, po measured for 20 min relative to vehicle-treated control. Conditions: Abdomen.
For assay [21], the system named is Rattus norvegicus. The assay is described as follows: Anti-inflammatory activity in Rattus norvegicus Sprague-Dawley (rat) assessed as increase in carrageenan-induced paw edema at 12 mg/kg, po measured at 4 hr by plethysmometer (reference value: 81.58 +/- 0.63 %). The assay is classed as functional.
Assay [22] concerns Rattus norvegicus. The assay is described as follows: Anti-inflammatory activity in Rattus norvegicus Sprague-Dawley (rat) assessed as increase in carrageenan-induced paw edema at 12 mg/kg, po measured at 2 hr by plethysmometer (reference value: 64.73 +/- 0.72 %). The assay is classed as functional.
In assay [23] the test system is Rattus norvegicus. The assay is described as follows: Antiulcerogenic activity in fasted Rattus norvegicus Sprague-Dawley (rat) stomach assessed as ulcer index at 48 mg/kg, po after 8 hr (reference value: 0.23 +/- 0.09). It is filed as functional.
For assay [24], the system named is Mus musculus. Nature of the assay: Analgesic activity in Mus musculus (mouse) assessed as inhibition of acetic acid-induced abdominal writhing at 10 mg/kg, po measured for 20 min relative to vehicle-treated control. As to conditions: Abdomen.
The subject of assay [25] is Rattus norvegicus. Nature of the assay: Anti-inflammatory activity in Rattus norvegicus Sprague-Dawley (rat) assessed as increase in carrageenan-induced paw edema at 16.5 mg/kg, po measured at 4 hr by plethysmometer (reference value: 81.58 +/- 0.63 %). It is filed as functional.
In assay [26] the test system is Rattus norvegicus. The assay is described as follows: Anti-inflammatory activity in Rattus norvegicus Sprague-Dawley (rat) assessed as increase in carrageenan-induced paw edema at 16.5 mg/kg, po measured at 2 hr by plethysmometer (reference value: 64.73 +/- 0.72 %). It is filed as functional.
For assay [27], the system named is Rattus norvegicus. The assay is described as follows: Antiulcerogenic activity in fasted Rattus norvegicus Sprague-Dawley (rat) stomach assessed as ulcer index at 66 mg/kg, po after 8 hr (reference value: 0.23 +/- 0.09). The assay is classed as functional.
The subject of assay [28] is Mus musculus. The assay is described as follows: Analgesic activity in Mus musculus (mouse) assessed as inhibition of acetic acid-induced abdominal writhing at 13.75 mg/kg, po measured for 20 min relative to vehicle-treated control. Conditions: Abdomen.
The subject of assay [29] is Rattus norvegicus. The assay is described as follows: Anti-inflammatory activity in Rattus norvegicus Sprague-Dawley (rat) assessed as increase in carrageenan-induced paw edema at 16.8 mg/kg, po measured at 4 hr by plethysmometer (reference value: 81.58 +/- 0.63 %). The assay is classed as functional.
The subject of assay [30] is Rattus norvegicus. The assay is described as follows: Anti-inflammatory activity in Rattus norvegicus Sprague-Dawley (rat) assessed as increase in carrageenan-induced paw edema at 16.8 mg/kg, po measured at 2 hr by plethysmometer (reference value: 64.73 +/- 0.72 %). It is filed as functional.
Assay [31] has as its system Rattus norvegicus. Nature of the assay: Antiulcerogenic activity in fasted Rattus norvegicus Sprague-Dawley (rat) stomach assessed as ulcer index at 64.1 mg/kg, po after 8 hr (reference value: 0.23 +/- 0.09). It is filed as functional.
The test system of assay [32] is Mus musculus. Nature of the assay: Analgesic activity in Mus musculus (mouse) assessed as inhibition of acetic acid-induced abdominal writhing at 13.35 mg/kg, po measured for 20 min relative to vehicle-treated control. Conditions: Abdomen.

Molecules are shown by their SMILES.

As for `COc1ccc2c(c1)c(CC(=O)Oc1ccc3c(c1)OCO3)c(C)n2C(=O)c1ccc(Cl)cc1`, the Activity in the assay on Rattus norvegicus [1] is recorded as 44.52%; in the assay on Rattus norvegicus [2], 43.17%. Further, in the assay with Rattus norvegicus [3], the UI is 0.79. Further, in the assay with Mus musculus [4], the inhibition in vivo at 13.96 mg/kg was 86%.
Regarding `C=CCc1ccc(OC(=O)Cc2c(C)n(C(=O)c3ccc(Cl)cc3)c3ccc(OC)cc23)c(OC)c1`, the Activity was 45.39% with Rattus norvegicus [5] and 44.33% in the assay with Rattus norvegicus [6]. Besides, the UI with Rattus norvegicus [7] worked out at 0.93. In the assay on Mus musculus [8], the inhibition in vivo at 14.08 mg/kg stood at 84.8%.
Regarding `COc1ccc2c(c1)c(CC(=O)Oc1ccccc1OC)c(C)n2C(=O)c1ccc(Cl)cc1`, the Activity is recorded as 48.21% in the assay with Rattus norvegicus [9] and 46.89% in the assay with Rattus norvegicus [10]. Moreover, the UI with Rattus norvegicus [11] amounted to 1.15. Besides, the inhibition in vivo at 12.9 mg/kg in the assay on Mus musculus [12] turned out to be 78.7%.
Consider `COc1ccc2c(c1)c(CC(=O)O[C@@H]1C[C@H](C)CC[C@H]1C(C)C)c(C)n2C(=O)c1ccc(Cl)cc1`, for which the Activity stood at 52.01% with Rattus norvegicus [13] and 55.54% in the assay with Rattus norvegicus [14]. For the same molecule, the UI in the assay on Rattus norvegicus [15] worked out at 1.41. In addition, the inhibition in vivo at 13.9 mg/kg with Mus musculus [16] was found to be 73.9%.
In the case of `COc1ccc2c(c1)c(CC(=O)Oc1cc(C)ccc1C(C)C)c(C)n2C(=O)c1ccc(Cl)cc1`, the figures for the Activity in the assay on Rattus norvegicus [17] and in the assay with Rattus norvegicus [18] were 54.61% and 50.25%, respectively. Further, the UI with Rattus norvegicus [19] came out at 1.37. Further, in the assay with Mus musculus [20], the inhibition in vivo at 13.69 mg/kg was determined as 73.2%.
As to `COc1ccc2c(c1)c(CC(=O)O)c(C)n2C(=O)c1ccc(Cl)cc1` [INDOMETHACIN], the Activity with Rattus norvegicus [21] was found to be 57.39%; in the assay on Rattus norvegicus [22], 48.35%. The UI with Rattus norvegicus [23] came out at 5.54. For the same molecule, in the assay with Mus musculus [24], the inhibition in vivo at 10 mg/kg turned out to be 74.9%.
As to `COc1ccc2c(c1)c(CC(=O)Oc1ccc(C=O)cc1OC)c(C)n2C(=O)c1ccc(Cl)cc1`, the Activity in the assay with Rattus norvegicus [25] is recorded as 49.87%; in the assay on Rattus norvegicus [26], 47.13%. For the same molecule, the UI in the assay on Rattus norvegicus [27] came out at 1.23. In the assay on Mus musculus [28], the inhibition in vivo at 13.75 mg/kg worked out at 81.5%.
For the molecule `COc1ccc2c(c1)c(CC(=O)Oc1ccc3ccc(=O)oc3c1)c(C)n2C(=O)c1ccc(Cl)cc1`, the Activity worked out at 50.27% with Rattus norvegicus [29] and 48.06% in the assay on Rattus norvegicus [30]. Moreover, the UI in the assay with Rattus norvegicus [31] was found to be 1.28. Also, the inhibition in vivo at 13.35 mg/kg in the assay with Mus musculus [32] worked out at 75.2%.

Broadly, the inhibition in vivo is the relative decrease from the control value, in per cent.
